We go through 18 molecules from ChEMBL document CHEMBL5154934, “Structure-Guided Design of Potent Spirocyclic Inhibitors of Severe Acute Respiratory Syndrome Coronavirus-2 3C-like Protease” (J Med Chem, 2022).

Active and inactive are the calls of the source. No cut-off for these calls is given here.

Test system in one data set: not listed separately
Briefly: Safety index, ratio of CC50 for cytotoxicity against Vero E6 cells to EC50 for antiviral activity against SARS-CoV-2 Wuhan-Hu-1. Type of data set: toxicity, cell-based, Vero C1008. As to conditions: monkey, read-out: Ratio CC50/EC50.
As to `CC(C)C[C@H](NC(=O)OC1CC2(CCN(C(=O)OC(C)(C)C)CC2)C1)C(=O)N[C@@H](C[C@H]1CCNC1=O)C(=O)C(O)S(=O)(=O)O` (stereo partly drawn), the selectivity ratio was found to be 1250.

Test system in another data set: not listed separately
Briefly: Cytotoxicity against african green monkey Vero E6 cells. Type of data set: toxicity, cell-based, Vero C1008. The conditions noted are these: chlorocebus sabaeus.
For `CC(C)C[C@H](NC(=O)OCC1CN(S(C)(=O)=O)C1)C(=O)N[C@@H](C[C@H]1CCNC1=O)C(=O)C(O)S(=O)(=O)O` (stereo partly drawn), the CC50 (commonly the concentration at which the toxic effect on the cells reaches its halfway point) was greater than 100 µM.

Regarding `CC(C)C[C@H](NC(=O)OC1CC2(C1)CN(C(=O)C(C)C)C2)C(=O)N[C@@H](C[C@H]1CCNC1=O)C(=O)C(O)S(=O)(=O)O` (stereo partly drawn), the CC50 is greater than 100 µM.

On to `CC(C)C[C@H](NC(=O)OC1CC2(CCN(C#N)CC2)C1)C(=O)N[C@@H](C[C@H]1CCNC1=O)C(=O)C(O)S(=O)(=O)O` (stereo partly drawn), for which the CC50 was greater than 100 µM.

Regarding `CC(C)C[C@H](NC(=O)OC1CC2(CCN(C(=O)Cc3ccccc3)CC2)C1)C(=O)N[C@@H](C[C@H]1CCNC1=O)C(=O)C(O)S(=O)(=O)O` (stereo partly drawn), the CC50 was greater than 100 µM.

`CC(C)C[C@H](NC(=O)OC1CCC2(C1)CN(C(=O)OC(C)(C)C)C2)C(=O)N[C@@H](C[C@H]1CCNC1=O)C(=O)C(O)S(=O)(=O)O` (stereo partly drawn) registered a CC50 greater than 100 µM.

For `CC(C)C[C@H](NC(=O)OC1CC2(C1)CN(C(=O)Cc1ccccc1)C2)C(=O)N[C@@H](C[C@H]1CCNC1=O)C(=O)C(O)S(=O)(=O)O` (stereo partly drawn), the CC50 is greater than 100 µM.

Take `[2H]C([2H])(OC(=O)N[C@@H](CC(C)C)C(=O)N[C@@H](C[C@H]1CCNC1=O)C(=O)C(O)S(=O)(=O)[O-])C1CN(C(=O)OC(C)(C)C)C1.[Na+]` (stereo partly drawn): the CC50 is greater than 100 µM.

`CC(C)C[C@H](NC(=O)OCC1CN(C(=O)C2CC3CCC2C3)C1)C(=O)N[C@@H](C[C@H]1CCNC1=O)C(=O)C(O)S(=O)(=O)O` (stereo partly drawn) came in with a CC50 greater than 100 µM.

Regarding `CC(C)C[C@H](NC(=O)OCC1CN(C(=O)Cc2ccccc2)C1)C(=O)N[C@@H](C[C@H]1CCNC1=O)C(=O)C(O)S(=O)(=O)O` (stereo partly drawn), the CC50 is greater than 100 µM.

Regarding `CC(C)C[C@H](NC(=O)OC1CC2(CCN(C(=O)OC(C)(C)C)CC2)C1)C(=O)N[C@@H](C[C@H]1CCNC1=O)C(=O)C(O)S(=O)(=O)O` (stereo partly drawn), the CC50 was greater than 100 µM.

Molecule `CC(C)C[C@H](NC(=O)OC1CC2(CCN(C(=O)C(C)C)CC2)C1)C(=O)N[C@@H](C[C@H]1CCNC1=O)C(=O)C(O)S(=O)(=O)O` (stereo partly drawn) registered a CC50 greater than 100 µM.

Molecule `CC(C)C[C@H](NC(=O)OC1(C)CN(C(=O)OC(C)(C)C)C1)C(=O)N[C@@H](C[C@H]1CCNC1=O)C(=O)C(O)S(=O)(=O)O` (stereo partly drawn) returned a CC50 greater than 100 µM.

As for `CC(C)C[C@H](NC(=O)OCC1CN(C(=O)OC(C)(C)C)C1)C(=O)N[C@@H](C[C@H]1CCNC1=O)C(=O)C(O)S(=O)(=O)O` (stereo partly drawn), the CC50 is greater than 100 µM.

`CC(C)C[C@H](NC(=O)OC1CC2(C1)CN(C(=O)OC(C)(C)C)C2)C(=O)N[C@@H](C[C@H]1CCNC1=O)C(=O)C(O)S(=O)(=O)O` (stereo partly drawn) had a CC50 greater than 100 µM.

On to `CC(C)C[C@H](NC(=O)OC1CN(C(=O)OC(C)(C)C)C1)C(=O)N[C@@H](C[C@H]1CCNC1=O)C(=O)C(O)S(=O)(=O)O` (stereo partly drawn), for which the CC50 was greater than 100 µM.

`CC(C)C[C@H](NC(=O)OC1CC2(CCN(S(C)(=O)=O)CC2)C1)C(=O)N[C@@H](C[C@H]1CCNC1=O)C(=O)C(O)S(=O)(=O)O` (stereo partly drawn) showed a CC50 greater than 100 µM.

On to `CC(C)C[C@H](NC(=O)OC1CC2(C1)CN(S(C)(=O)=O)C2)C(=O)N[C@@H](C[C@H]1CCNC1=O)C(=O)C(O)S(=O)(=O)O` (stereo partly drawn), for which the CC50 was greater than 100 µM.

`CC(C)C[C@H](NC(=O)OC1CC2(CCN(C(=O)OC(C)(C)C)C2)C1)C(=O)N[C@@H](C[C@H]1CCNC1=O)C(=O)C(O)S(=O)(=O)O` (stereo partly drawn) returned a CC50 greater than 100 µM.

The test system of a further data set is SARS-CoV-2. Briefly: Antiviral activity against N-terminal His6-tagged SARS-CoV-2 3C-like protease […] HEK293T cells measured after 24 hrs by cell based replicon assay. Type of data set: functional, organism-based. The conditions noted are these: Severe acute respiratory syndrome coronavirus 2. In general terms: In antiviral work, replicon cells carry a viral genome segment that copies itself.
Turning to `CC(C)C[C@H](NC(=O)OC1CC2(CCN(C(=O)OC(C)(C)C)CC2)C1)C(=O)N[C@@H](C[C@H]1CCNC1=O)C(=O)C(O)S(=O)(=O)O` (stereo partly drawn), the result was Active.

Consider `CC(C)C[C@H](NC(=O)OCC1CN(C(=O)OC(C)(C)C)C1)C(=O)N[C@@H](C[C@H]1CCNC1=O)C(=O)C(O)S(=O)(=O)O` (stereo partly drawn), for which the result was Active.

In another data set the test system is SARS-CoV-2. Briefly: Antiviral activity against SARS-CoV-2 3C-like measured after 24 hrs. Type of data set: functional, organism-based. The conditions noted are these: Severe acute respiratory syndrome coronavirus 2, 24 h.
`CC(C)C[C@H](NC(=O)OC1CC2(CCN(C(=O)OC(C)(C)C)CC2)C1)C(=O)N[C@@H](C[C@H]1CCNC1=O)C(=O)C(O)S(=O)(=O)O` (stereo partly drawn): a half-maximal response (EC50) required 0.08 µM.

As for `CC(C)C[C@H](NC(=O)OCC1CN(C(=O)OC(C)(C)C)C1)C(=O)N[C@@H](C[C@H]1CCNC1=O)C(=O)C(O)S(=O)(=O)O` (stereo partly drawn), the EC50 (commonly the concentration needed to bring the measured effect to its halfway point) was 0.43 µM.
